Measured values as given in US20230086702A1, “SUBSTITUTED 2-AMINO-PYRAZOLYL-[1,2,4]TRIAZOLO[1,5A]PYRIDINE DERIVATIVES AND USE THEREOF” (The Johns Hopkins University, priority 2019, published 2023).

What was measured:
hRGCs = experiment: hRGC survival under rotenone or CCCP (Cell Titer Glo); assay type: cell-based, human; details: 1 uM rotenone or 30 uM CCCP, increasing doses, 72 hours (FIG. 4)
Procedure: (§1) H7 or H9 human embryonic stem cells or patient-derived induced pluripotent stem cells were modified to express mouse Thy1.2 and tdTomato from the BRN3B locus (Sluch et al., 2017). To produce RGCs, stem cells were dissociated to single cells and plated on Matrigel (Corning, USA) coated plates at a density of 52.6 K/cm^2 in mTeSR1 with […] blebbistatin, a time point designated as day minus 1 (d-1). One day after plating, mTeSR1 was completely exchanged for N2B27 media [1:1 mix of DMEM/F12 and Neurobasal with GlutaMAX Supplement, antibiotic-antimycotic, 1% N2 Supplement, and 2% B27 Supplement (all from ThermoFisher Scientific)] to start differentiation; this day was designated as day 0 (d0). Small molecules were added to the cells on day 1 (dl), 24 hours after d0. Small molecule addition was done in fresh N2B27 media. Cells were fed with a full exchange of N2B27 media every other day unless a small molecule was to be removed or added on that day of differentiation, requiring daily feeding. […] After 35 days in culture, when abundant RGCs have appeared (indicated by red fluorescence), cultures were dissociated into a single cell suspension. […]
hRGCs were challenged with (A) 1 uM rotenone or (B) 30 uM CCCP in the presence of increasing doses of I-84 for 72 hours. Cell survival was quantified using Cell Titer Glo, an ATP-based luminescent assay.

DLK = target: T1, DLK (Homo sapiens, UniProt Q12852); experiment: DLK biochemical assay (TR-FRET, MKK7 phosphorylation); details: DLK catalytic domain, MKK7 substrate, 60 μM ATP
T1 construct: 10 nM DLK, catalytic domain, Carna Biosiences; purchased Carna Biosciences ('Carna Biosiences' [sic])
T1 sequence (Q12852 125-366 limits assumed): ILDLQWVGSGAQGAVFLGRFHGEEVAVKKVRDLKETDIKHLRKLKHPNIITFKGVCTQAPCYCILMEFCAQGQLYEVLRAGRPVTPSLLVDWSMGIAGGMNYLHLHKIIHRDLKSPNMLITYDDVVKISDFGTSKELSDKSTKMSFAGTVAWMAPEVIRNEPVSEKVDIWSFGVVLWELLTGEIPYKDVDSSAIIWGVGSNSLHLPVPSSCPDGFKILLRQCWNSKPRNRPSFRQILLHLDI
How it was run: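 TR-FRET read-out (ratio of 665 nm acceptor to Eu donor channel) tracks MKK7 T275/S277 phosphorylation by DLK, using Eu-labelled anti-phospho-MKK7 and XL665-labelled anti-His on His-MKK7. Reactions were stopped and detected in pH 7.5 Tris buffer containing 100 mM EDTA, 100 mM NaCl, 200 mM KF and 0.01% Tween 20.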

[1] = tested on: human stem cell derived RGCs; experiment: Protection of human stem cell derived RGCs in models of mitochondrial injury (FIG. 4); assay type: cell-based
Procedure: as §1, with “d0.” for “d0. Small molecule addition was done in fresh N2B27 media. Cells were fed with a full exchange of N2B27 media every other day unless a small molecule was to be removed or added on that day of differentiation, requiring daily feeding.”
In order to test compounds, RGCs were plated in 96- or 384-well Nunclon or Falcon dishes. […] For both sets of RGCs, increasing doses of the kinase inhibitors was added at the time of injury and survival was quantitated after 72 hours using CellTiter-Glo (Promega, Madison) and measuring relative light units (RLU) or by staining cultures with conventional viability dyes (i.e. ethidium homodimer exclusion, calcein AM uptake) and measuring survival by automated image analysis.

LZK = target: T2, LZK (Homo sapiens, UniProt O43283); experiment: LZK biochemical assay (TR-FRET, MKK7 phosphorylation); details: LZK catalytic domain, MKK7 substrate, 15 μM ATP
T2 construct: 10 nM LZK, catalytic domain, Carna Biosiences in assay buffer; purchased Carna Biosciences ('Carna Biosiences' [sic])
T2 sequence (O43283 168-409 limits assumed): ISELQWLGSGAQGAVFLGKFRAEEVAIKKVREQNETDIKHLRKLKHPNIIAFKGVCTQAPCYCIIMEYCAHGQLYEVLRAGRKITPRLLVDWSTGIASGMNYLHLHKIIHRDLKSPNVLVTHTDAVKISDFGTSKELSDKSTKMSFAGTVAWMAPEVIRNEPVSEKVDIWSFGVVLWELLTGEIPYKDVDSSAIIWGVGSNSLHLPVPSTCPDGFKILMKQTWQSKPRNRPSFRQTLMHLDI

retina = experiment: Retinal structure and function after intravitreal injection (optical coherence tomography, electroretinographs); assay type: in vivo, mice; details: 7 days following intravitreal injection of 10 mM, vs vehicle (DMSO) (FIG. 10, 11A, 11B)
Procedure: Optical coherence tomography images of mice 7 days following intravitreal injections of either vehicle (DMSO) or 10 mM I-81 were obtained (FIG. 10). Retinal electroretinographs were also acquired (FIGS. 11A and 11B).

Row | Compound | cell survival of hRGCs (hRGCs) | IC50 (DLK) [nM] | protection of human stem cell derived RGCs [1] | IC50 (LZK) [nM] | structural or functional toxicity to the retina (retina)
1 | CC[C@H](C)NC(=O)c1cc(-c2cnn([C@H](c3ccc(C(F)(F)F)nc3)C3CCN(C(C)=O)CC3)c2)cn2nc(N)nc12 [Example I-84, 6-(1-{(1-Acetylpiperidin-4-yl)[6-(trifluoromethyl)pyridin-3-yl]methyl}-1H-pyrazol-4-yl)-2-amino-N-[(2S)-butan-2-yl][1,2,4]triazolo[1,5-a]pyridine-8-carboxamide] | protective to human stem cell derived RGCs in models of mitochondrial injury | 0.5 | protective | 1.2 | 
2 | CC[C@H](C)NC(=O)c1cc(-c2cnn([C@H](c3ccc(C(F)(F)F)nc3)C3CCN(C(=O)OC(C)(C)C)CC3)c2)cn2nc(N)nc12 [Example I-81, tert-Butyl 4-{(4-{2-amino-8-[(2S)-butan-2-ylcarbamoyl][1,2,4]triazolo[1,5-a]pyridin-6-yl}-1H-pyrazol-1-yl)[6-(trifluoromethyl)pyridin-3-yl]methyl}piperidine-1-carboxylate] |  | 6.6 |  | 8.5 | did not induce structural or functional toxicity to the retina
